The results in this text go back to patent publication US20040092498A1, “Substituted glycine derivatives for use as medicaments” (priority 2002, published 2004).

In the assay the test system is α2δ subunit. Nature of the assay: radioligand binding assay using [3H]gabapentin and the α2δ subunit. To be noted: [3H]gabapentin radioligand; α2δ subunit derived from porcine brain tissue. An excerpt:
The biological activity of the compounds of the invention may be measured in a radioligand binding assay using [^3H]gabapentin and the α2δ subunit derived from porcine brain tissue (Gee N. S., Brown J. P., Dissanayake V. U. K., Offord J., Thurlow R., Woodruff G. N., J. Biol. Chem., 1996;271:[…]). Results may be expressed in terms of μM or nM α2δ binding affinity.
As to `O=C(O)CNCCSc1ccc(Cl)cc1` [Example 6, ({2-[(4-Chlorophenyl)sulfanyl]ethyl}amino)acetic acid], the “Activity (binding affinity)” value was 198 nM.

As for `NCc1ccc(SCCNCC(=O)O)cc1` [Example 8, [(2-{[4-(Aminomethyl)phenyl]sulfanyl}ethyl)amino]acetic acid], the “Activity (binding affinity)” value is given as 987 nM.

For `O=C(O)CNCCOc1ccc(Cl)cc1Cl` [Example 9, {[2-(2,4-Dichlorophenoxy)ethyl]amino}acetic acid], the “Activity (binding affinity)” value is reported as 1665 nM.

In the case of `O=C(O)CNCCSCc1ccc(Cl)cc1` [Example 10, ({2-[(4-Chlorobenzyl)sulfanyl]ethyl}amino)acetic acid], the “Activity (binding affinity)” value was determined as 507 nM.

For the molecule `O=C(O)CNCCSc1ccc2ccncc2c1` [Example 11, {[2-(7-Isoquinolinylsulfanyl)ethyl]amino}acetic acid], the “Activity (binding affinity)” value was found to be 71 nM.

With `CCOC(=O)CNCCSc1ccc(Cl)cc1` [Example 12, Ethyl ({2-[(4-chlorophenyl)sulfanyl]ethyl}amino)acetate], the “Activity (binding affinity)” value is recorded as 5406 nM.
